Measured values: patent EP2311435A1, “Pharmaceutical composition comprising poorly soluble active ingredient and hyperbranched polymer” (LEK Pharmaceuticals d.d., priority 2009, dated 2011)
≈ marks a conversion by molar mass, not a printed value.

Tests used:
[1] = pH 6.8
physchem [2] = settings: 37 °C, pH 7, aqueous buffer, thermodynamic from solid
Protocol: Solubility as meant herein is measured using USP apparatus 2 (U.S. Pharmacopoeia 32-NF27) with agitation at 75 RPM in the dissolution medium of a phosphate buffer maintained at pH 6.8 and 37° C. Such low solubility makes preparing a useful pharmaceutical composition of acceptable size and efficacy especially difficult.
In a preferred embodiment, this is irrespective of the pharmacological effect it might have or ailment it is used to prevent or treat.
The pharmaceutical compositions, powders or granulates according to the invention comprise the hyperbranched polymer/API in specific weight ratios.

physchem [3] = settings: pH 6.8, aqueous buffer
[4] = In vitro dissolution of glimepiride, USP Apparatus II (paddle), phosphate buffer pH 6.8; format: physicochemical; settings: mixed with hyperbranched polymer at the ratio of the invention, 37 °C, figures 3 and 4
Protocol: Approximately 50 % of the active ingredient (4 mg) is dissolved after 60 minutes of testing at following conditions: 37 °C in the USP Dissolution Tester, Apparatus II (Paddle method) using 900 ml of phosphate buffer (pH 6.8) as the dissolution medium and at a rotation rate of 75 rpm.
Dissolution of glimepiride was assessed at 37 °C by the USP Dissolution Tester, Apparatus II (Paddle method) at a rotation rate of 75 rpm using 900 ml of phosphate buffer (pH 6.8) as dissolution medium. The tested samples were added directly to the buffer in the correct amount to achieve a final concentration of 4,4 µg / mL glimepiride (equals therapeutic dose dissolved in 900 mL). Aliquots, each of 2 ml, from the dissolution medium were withdrawn at time intervals of 5, 15, 30, 60 minutes. The samples were withdrawn through syringe and filtered through Millipore filter and analyzed for glimepiride content using HPLC method.
The amount of dissolved glimepiride was estimated by reversed-phase HPLC (Waters Alliance) in a binary mode, with a photodiode array detector and a communication bus module. […]

[5] = In vitro dissolution of indapamide, USP Apparatus II (paddle), phosphate buffer pH 6.8; format: physicochemical; settings: with polyesteramide hyperbranched polymers, figure 5
Protocol: Dissolution of indapamide was assessed at 37 °C by the USP Dissolution Tester, Apparatus II (Paddle method), using 900 ml of phosphate buffer (pH 6.8) as the dissolution medium and at a rotation rate of 75 rpm. The tested samples were added directly to buffer in an amount in order to achieve a final concentration of 15 µg / mL indapamide. Aliquots, each of 2 ml, from the dissolution medium were withdrawn at time intervals of 5, 15, 30, 60 minutes. The samples were withdrawn through syringe and filtered through Millipore filter in order to separate the undissolved sample and analyzed for indapamide using UV spectrofotometry at 287 nm.

[6] = In vitro dissolution of pimobendan, USP Apparatus II (paddle), phosphate buffer pH 6.8; format: physicochemical; settings: admixed with Hybrane S1200, 2% and 5% of active ingredient
Protocol: The samples of pimobendan were prepared as in examples 6 to 13. Dissolution of pimobendan was assessed at 37 °C by the USP Dissolution Tester, Apparatus II (Paddle method) at a rotation rate of 75 rpm, using 900 ml of phosphate buffer (pH 6.8) as the dissolution medium. The tested samples were added directly to the buffer in the correct amount to achieve a final concentration of 5.5 µg / mL pimobendan (equals therapeutic dose dissolved in 900 mL). Aliquots, each of 2 ml, from the dissolution medium were withdrawn at time intervals of 5, 15, 30, 60 minutes. The samples were withdrawn through syringe and filtered through Millipore filter in order to separate the undissolved sample and analyzed for pimobendan using HPLC method.

[7] = Solubility in the presence of Hybrane S1200

SMILES | Increase [1] [fold] | solubility (physchem [2]) [µg/mL] | solubility (physchem [3]; [7]) [µg/mL] | solubility (physchem [3]; Solubility without polymer) [µg/mL] | solubility of glimepiride [4] | solubility of the indapamide [5] | solubility of the active ingredient [6]
O=C1C(O)=C([C@H]2CC[C@H](c3ccc(Cl)cc3)CC2)C(=O)c2ccccc21 [atovaquone] | 100 | 3 (≈ 8.18 µM) | 3 | 0.03 (≈ 0.0818 µM) |  |  | 
COc1ccc(-c2nc3ccc(C4=NNC(=O)CC4C)cc3[nH]2)cc1 (stereo not shown) [pimobendan] | 50 | 210 (≈ 628 µM) | 210 | 4 (≈ 12 µM) |  |  | significantly increases
CN1CC(=O)N2[C@H](c3ccc4c(c3)OCO4)c3[nH]c4ccccc4c3C[C@@H]2C1=O [tadalafil] | 55 | 110 (≈ 282 µM) | 110 | 2 (≈ 5.14 µM) |  |  | 

Now from value to compound:

Increase [1] [fold] | solubility (physchem [2]) [µg/mL] | solubility (physchem [3]; [7]) [µg/mL] | solubility (physchem [3]; Solubility without polymer) [µg/mL] | solubility of glimepiride [4] | solubility of the indapamide [5] | solubility of the active ingredient [6] | SMILES
 | 60 (≈ 121 µM) |  |  |  |  |  | COc1ccc(Cl)cc1C(=O)NCCc1ccc(S(=O)(=O)NC(=O)NC2CCCCC2)cc1 [glibenclamide]
 | 50 (≈ 155 µM) |  |  |  |  |  | Cc1ccc(S(=O)(=O)NC(=O)NN2CC3CCCC3C2)cc1 (stereo not shown) [gliclazide]
10 | 1 (≈ 2.04 µM) | 10 | 1 (≈ 2.04 µM) | significantly increased |  |  | CCC1=C(C)CN(C(=O)NCCc2ccc(S(=O)(=O)NC(=O)N[C@H]3CC[C@H](C)CC3)cc2)C1=O [glimepiride]
140 | 700 (≈ 1910 µM) | 700 | 5 (≈ 13.7 µM) |  | remarkably enhance |  | CC1Cc2ccccc2N1NC(=O)c1ccc(Cl)c(S(N)(=O)=O)c1 (stereo not shown) [indapamide]
